Experimental findings from patent US12331040B2 (Karyopharm Therapeutics Inc., priority 2013, dated 2025) are described below.

Test in all cases: MTT cell proliferation assay
Holding throughout (type): cell-based
On the technique in general: Tetrazolium dyes change colour on reduction, which living cells bring about.

For one test, the system named is 3T3 cells. Conditions: Mus musculus, NIH3T3, approximately 64-72 hours incubation. As to the method:
(§1) The MTT cell proliferation assay was used to study the cytotoxic properties of the compounds. The assay was performed according to the method described by Roche Molecular Biochemicals, with minor modifications. The assay is based on the cleavage of the tetrazolium salt, MTT, in the presence of an electron-coupling reagent. The water-insoluble formazan salt produced must be solubilized in an additional step. Cells grown in a 96-well tissue culture plate were incubated with the MTT solution for approximately 4 hours. After this incubation period, a water-insoluble formazan dye formed. After solubilization, the formazan dye was quantitated using a scanning multi-well spectrophotometer (ELISA reader). […] The cells were seeded at 5,000-10,000 cells in each well of 96-well plate in 100 μL of fresh culture medium and were allowed to attach overnight. The stock solutions of the compounds were diluted in 100 μL cell culture medium to obtain eight concentrations of each test compound, ranging from 1 nM to 30 μM. […] All optical densities were measured at 490 nm using a Vmax Kinetic Microplate Reader (Molecular Devices). In most cases, the assay was performed in duplicate and the results were presented as a mean percent inhibition to the negative control±SE. The following formula was used to calculate the percent of inhibition: Inhibition (%)=(1−(ODo/OD))×100.
(§2) The compounds were tested against MS751, Z138 and 3T3 cells. The MS751 cell line is derived from a metastasis to lymph node of human cervix from a patient diagnosed with squamous cell carcinoma of the cervix. The Z138 cell line is a mature B-cell acute lymphoblastic leukemia cell line derived from a patient with chronic lymphocytic leukemia. 3T3 cells are standard fibroblast cells; they were originally isolated from Swiss mouse embryo tissue.

A further test concerns MS751 cells. Conditions: Homo sapiens, MS751, MS751 cells, approximately 64-72 hours incubation. As to the method: as §1, §2
Another test relates to Z138 cells. Conditions: Homo sapiens, Z-138, Z138 cells, approximately 64-72 hours incubation. The procedure: as §1, §2
The mark [1] stands for this setting: read-out: MTT Assay IC50, MS-751.
Setting [2] is: read-out: MTT Assay IC50, Z-138.
Setting [3] is: read-out: MTT Assay IC50 MS-751.

pIC50: −log10 of the molar value. Read-outs that look alike come from different tables or passages of the source.

As to `[2H]C([2H])([2H])Oc1cc(-c2ccc(C(=O)N3CCC(F)(F)CC3)cn2)cc2cc(CNC(=O)/C=C/c3ccc(N)nc3)oc12` [Compound 660, (E)-3-(6-aminopyridin-3-yl)-N-((5-(5-(4,4-difluoropiperidine-1-carbonyl)pyridin-2-yl)-7-(methoxy-d3)benzofuran-2-yl)methyl)acrylamide], the pIC50 with 3T3 cells (read-out: MTT Assay IC50, 3T3) was below 5.00; in the test with MS751 cells (setting [1]), above 7.00; in the test on Z138 cells (setting [2]), above 7.00.
For `CC(=O)c1ccc(-c2cc(Cl)c3oc(CNC(=O)/C=C/c4ccc(N)nc4)cc3c2)s1` [Compound 500, (E)-N-((5-(5-acetylthiophen-2-yl)-7-chlorobenzofuran-2-yl)methyl)-3-(6-aminopyridin-3-yl) acrylamide], the pIC50 was below 5.00 with 3T3 cells (read-out: MTT Assay IC50 3T3), 5.30 to 7.00 in the test with MS751 cells (setting [3]) and 5.30 to 7.00 with Z138 cells (read-out: MTT Assay IC50 Z-138).
`Nc1ccc(/C=C/C(=O)NCc2cc3cc(-c4ccc(C(=O)N5CCC(F)(F)CC5)cc4)cc(-c4cc5ccccc5o4)c3o2)cn1` [Compound 699]: the negative-log IC50 (pIC50) in the test with 3T3 cells (read-out: MTT Assay IC50, 3T3) is 5.00 to 5.30; in the test with MS751 cells (setting [1]) it was above 7.00; in the test with Z138 cells (setting [2]), above 7.00.
Turning to `Nc1ccc(/C=C/C(=O)NCc2cc3cc(-c4ccc(C(O)c5ccc(F)cc5)cn4)cc(-c4ccc(F)cc4)c3o2)cn1` (stereo not drawn) [Compound 704, (E)-3-(6-aminopyridin-3-yl)-N-((7-(4-fluorophenyl)-5-(5-((4-fluorophenyl)(hydroxy)methyl)pyridin-2-yl)benzofuran-2-yl)methyl)acrylamide], the pIC50 was below 5.00 in the test with 3T3 cells (read-out: MTT Assay IC50, 3T3); 5.30 to 7.00 in the test with MS751 cells (setting [1]); 5.30 to 7.00 with Z138 cells (setting [2]).
With `Nc1ccc(/C=C/C(=O)NCc2cc3cc(-c4ccc(C(=O)N5CCC(Cl)CC5)cn4)cc(C(F)(F)F)c3o2)cn1` [Compound 614, (E)-3-(6-aminopyridin-3-yl)-N-((5-(5-(4-chloropiperidine-1-carbonyl)pyridin-2-yl)-7-(trifluoromethyl)benzofuran-2-yl)methyl)acrylamide], the negative-log IC50 (pIC50) was below 5.00 in the test on 3T3 cells (read-out: MTT Assay IC50 3T3), 5.30 to 7.00 in the test with MS751 cells (setting [3]) and 5.30 to 7.00 in the test with Z138 cells (read-out: MTT Assay IC50 Z-138).
`Nc1ccc(/C=C/C(=O)NCc2cc3cc(-c4ccc(C(=O)N5CCC(O)(C(F)(F)F)C5)cn4)cc(C(F)(F)F)c3o2)cn1` (stereo not drawn) [Compound 613, (E)-3-(6-aminopyridin-3-yl)-N-((5-(5-(3-hydroxy-3-(trifluoromethyl)pyrrolidine-1-carbonyl)pyridin-2-yl)-7-(trifluoromethyl)benzofuran-2-yl)methyl)acrylamide]: the pIC50 in the test with 3T3 cells (read-out: MTT Assay IC50 3T3) was below 5.00; in the test with MS751 cells (setting [3]), 5.30 to 7.00; with Z138 cells (read-out: MTT Assay IC50 Z-138), above 7.00.
Take `Nc1ccc(/C=C/C(=O)NCc2cc3cc(-c4ccc(C(=O)N5CCC(F)(F)CC5)cc4)cc(-c4ccncc4F)c3o2)cn1` [Compound 696, (E)-3-(6-aminopyridin-3-yl)-N-((5-(4-(4,4-difluoropiperidine-1-carbonyl)phenyl)-7-(3-fluoropyridin-4-yl)benzofuran-2-yl)methyl)acrylamide]: the negative-log IC50 (pIC50) with 3T3 cells (read-out: MTT Assay IC50, 3T3) is 5.30 to 7.00; in the test on MS751 cells (setting [1]) it was above 7.00; in the test on Z138 cells (setting [2]), above 7.00.
In the case of `Nc1ccc(/C=C/C(=O)NCc2cc3cc(-c4ccc(C(=O)N5CCNCC5)cc4)cc(C(F)(F)F)c3o2)cn1` [Compound 564, (E)-3-(6-aminopyridin-3-yl)-N-((5-(4-(piperazine-1-carbonyl)phenyl)-7-(trifluoromethyl)benzofuran-2-yl)methyl)acrylamide], the pIC50 is below 5.00 in the test with 3T3 cells (read-out: MTT Assay IC50 3T3), above 7.00 in the test on MS751 cells (setting [3]) and above 7.00 in the test on Z138 cells (read-out: MTT Assay IC50 Z-138).
Consider `CC1(O)CCN(C(=O)c2ccc(-c3cc(Cl)c4oc(CNC(=O)/C=C/c5ccc(N)nc5)cc4c3)cc2)CC1` [Compound 602, (E)-3-(6-aminopyridin-3-yl)-N-((7-chloro-5-(4-(4-hydroxy-4-methylpiperidine-1-carbonyl)phenyl)benzofuran-2-yl)methyl)acrylamide], for which the pIC50 with 3T3 cells (read-out: MTT Assay IC50 3T3) was below 5.00; in the test on MS751 cells (setting [3]), 5.30 to 7.00; in the test with Z138 cells (read-out: MTT Assay IC50 Z-138), 5.30 to 7.00.
Turning to `C[C@H]1COCCN1C(=O)c1ccc(-c2cc(Cl)c3oc(CNC(=O)/C=C/c4ccc(N)nc4)cc3c2)cc1` [Compound 515, (S,E)-3-(6-aminopyridin-3-yl)-N-((7-chloro-5-(4-(3-methylmorpholine-4-carbonyl)phenyl)benzofuran-2-yl)methyl)acrylamide], the values for the pIC50 in the test with 3T3 cells (read-out: MTT Assay IC50 3T3), in the test on MS751 cells (setting [3]) and in the test with Z138 cells (read-out: MTT Assay IC50 Z-138) were below 5.00, 5.30 to 7.00 and 5.30 to 7.00, respectively.
For the compound `Cc1c(CNC(=O)/C=C/c2ccc(N)nc2)oc2c(C(F)(F)F)cc(-c3ccc(C(=O)N4CCC(F)(F)CC4)cn3)cc12` [Compound 677, (E)-3-(6-aminopyridin-3-yl)-N-((5-(5-(4,4-difluoropiperidine-1-carbonyl)pyridin-2-yl)-3-methyl-7-(trifluoromethyl)benzofuran-2-yl)methyl)acrylamide], the pIC50 with 3T3 cells (read-out: MTT Assay IC50, 3T3) was below 5.00; with MS751 cells (setting [1]), below 5.00; with Z138 cells (setting [2]) it was below 5.00.
`Nc1ccc(/C=C/C(=O)NCc2cc3cc(-c4ccc(C(=S)N5CCC(F)(F)CC5)cn4)cc(-c4ccncc4)c3o2)cn1` [Compound 707, (E)-3-(6-aminopyridin-3-yl)-N-((5-(5-(4,4-difluoropiperidine-1-carbonothioyl)pyridin-2-yl)-7-(pyridin-4-yl)benzofuran-2-yl)methyl)acrylamide]: the pIC50 with 3T3 cells (read-out: MTT Assay IC50, 3T3) is 5.30 to 7.00; in the test with MS751 cells (setting [1]), above 7.00; in the test with Z138 cells (setting [2]) it was above 7.00.
Regarding `CS(=O)(=O)c1ccc(-c2cc(-c3ccc(F)cc3)c3oc(CNC(=O)/C=C/c4ccc(N)nc4)cc3c2)cc1` [Compound 693, (E)-3-(6-aminopyridin-3-yl)-N-((7-(4-fluorophenyl)-5-(4-(methylsulfonyl)phenyl)benzofuran-2-yl)methyl)acrylamide], the pIC50 in the test on 3T3 cells (read-out: MTT Assay IC50, 3T3) was 5.30 to 7.00; in the test on MS751 cells (setting [1]) it was above 7.00; in the test on Z138 cells (setting [2]) it was above 7.00.
Turning to `Nc1ccc(/C=C/C(=O)NCc2cc3cc(-c4cc(C(=O)N5CCOCC5)c(F)cn4)cc(C(F)(F)F)c3o2)cn1` [Compound 580, (E)-3-(6-aminopyridin-3-yl)-N-((5-(5-fluoro-4-(morpholine-4-carbonyl)pyridin-2-yl)-7-(trifluoromethyl)benzofuran-2-yl)methyl)acrylamide], the values for the pIC50 in the test with 3T3 cells (read-out: MTT Assay IC50 3T3), in the test on MS751 cells (setting [3]) and with Z138 cells (read-out: MTT Assay IC50 Z-138) were 5.00 to 5.30, above 7.00 and above 7.00, respectively.
In the case of `Nc1ccc(/C=C/C(=O)NCc2cc3cc(-c4ccc(C(=S)N5CCC(F)(F)CC5)cn4)cc(-c4ccc(F)cc4F)c3o2)cn1` [Compound 708, (E)-3-(6-aminopyridin-3-yl)-N-((7-(2,4-difluorophenyl)-5-(5-(4,4-difluoropiperidine-1-carbonothioyl)pyridin-2-yl)benzofuran-2-yl)methyl)acrylamide], the pIC50 was 5.30 to 7.00 in the test on 3T3 cells (read-out: MTT Assay IC50, 3T3); above 7.00 in the test on MS751 cells (setting [1]); above 7.00 in the test on Z138 cells (setting [2]).
For the compound `Nc1ccc(/C=C/C(=O)NCc2cc3cc(-c4ccc(C(=O)N5CCC(F)(F)CC5)cc4)cc(-c4ccc(F)c(F)c4)c3o2)cn1` [Compound 737, (E)-3-(6-aminopyridin-3-yl)-N-((7-(3,4-difluorophenyl)-5-(4-(4,4-difluoropiperidine-1-carbonyl)phenyl)benzofuran-2-yl)methyl)acrylamide], the pIC50 was 5.30 to 7.00 in the test on 3T3 cells (read-out: MTT Assay IC50, 3T3); above 7.00 in the test on MS751 cells (setting [1]); above 7.00 in the test with Z138 cells (setting [2]).
As for `Nc1ccc(/C=C/C(=O)NCc2cc3cc(-c4ccc(C(=O)N5CC[C@@H](F)C5)cc4)cc(Cl)c3o2)cn1` [Compound 523, (R,E)-3-(6-aminopyridin-3-yl)-N-((7-chloro-5-(4-(3-fluoropyrrolidine-1-carbonyl)phenyl)benzofuran-2-yl)methyl)acrylamide], the pIC50 with 3T3 cells (read-out: MTT Assay IC50 3T3), with MS751 cells (setting [3]) and in the test on Z138 cells (read-out: MTT Assay IC50 Z-138) was below 5.00 each time.
On to `Nc1ccc(/C=C/C(=O)NCc2cc3cc(-c4ccc(C(=O)N5CC(O)(C(F)(F)F)C5)cn4)cc(C(F)(F)F)c3o2)cn1` [Compound 747, (E)-3-(6-aminopyridin-3-yl)-N-((5-(5-(3-hydroxy-3-(trifluoromethyl)azetidine-1-carbonyl)pyridin-2-yl)-7-(trifluoromethyl)benzofuran-2-yl)methyl)acrylamide], for which the negative-log IC50 (pIC50) in the test on 3T3 cells (read-out: MTT Assay IC50, 3T3) is below 5.00; with MS751 cells (setting [1]) it was 5.30 to 7.00; in the test with Z138 cells (setting [2]), 5.30 to 7.00.
On to `CC1(F)CCN(C(=O)c2ccc(-c3cc(C(F)(F)F)c4oc(CNC(=O)/C=C\c5ccc(N)nc5)cc4c3)nc2)C1` (single isomer, unassigned) [Compound 657, (Z)-3-(6-aminopyridin-3-yl)-N-((5-(5-(3-fluoro-3-methylpyrrolidine-1-carbonyl)pyridin-2-yl)-7-(trifluoromethyl)benzofuran-2-yl)methyl)acrylamide], for which the pIC50 in the test with 3T3 cells (read-out: MTT Assay IC50, 3T3) is below 5.00; with MS751 cells (setting [1]), 5.30 to 7.00; with Z138 cells (setting [2]) it was 5.30 to 7.00.

Usually pIC50 stands for the negative decadic logarithm of the IC50, by convention in mol/L.
